Values quoted from earlier work as cited in publication PMC7587962, “Evaluation of Cytotoxicity and α-Glucosidase Inhibitory Activity of Amide and Polyamino-Derivatives of Lupane Triterpenoids” (Molecules, 2020).

Experiments:
CCRF-CEM = test system: CCRF-CEM; design: method as in PMID 25405285; settings: standard drugs used by NCI as control; cited from earlier work
K-562 = test system: K-562; design: method as in PMID 25405285; settings: standard drugs used by NCI as control; cited from earlier work
MOLT-4 = test system: MOLT-4; design: method as in PMID 25405285; settings: standard drugs used by NCI as control; cited from earlier work
RPMI-8226 = test system: RPMI-8226; design: method as in PMID 25405285; settings: standard drugs used by NCI as control; cited from earlier work
A549/ATCC = test system: A549/ATCC; design: method as in PMID 25405285; settings: standard drugs used by NCI as control; cited from earlier work
HOP-62 = test system: HOP-62; design: method as in PMID 25405285; settings: standard drugs used by NCI as control; cited from earlier work
HOP-92 = test system: HOP-92; design: method as in PMID 25405285; settings: standard drugs used by NCI as control; cited from earlier work
NCI-H226 = test system: NCI-H226; design: method as in PMID 25405285; settings: standard drugs used by NCI as control; cited from earlier work
NCI-H23 = test system: NCI-H23; design: method as in PMID 25405285; settings: standard drugs used by NCI as control; cited from earlier work
NCI-H460 = test system: NCI-H460; design: method as in PMID 25405285; settings: standard drugs used by NCI as control; cited from earlier work
NCI-H522 = test system: NCI-H522; design: method as in PMID 25405285; settings: standard drugs used by NCI as control; cited from earlier work
COLO 205 = test system: COLO 205; design: method as in PMID 25405285; settings: standard drugs used by NCI as control; cited from earlier work
HCC-2998 = test system: HCC-2998; design: method as in PMID 25405285; settings: standard drugs used by NCI as control; cited from earlier work
HCT-116 = test system: HCT-116; design: method as in PMID 25405285; settings: standard drugs used by NCI as control; cited from earlier work
HCT-15 = test system: HCT-15; design: method as in PMID 25405285; settings: standard drugs used by NCI as control; cited from earlier work
HT29 = test system: HT29; design: method as in PMID 25405285; settings: standard drugs used by NCI as control; cited from earlier work
KM12 = test system: KM12; design: method as in PMID 25405285; settings: standard drugs used by NCI as control; cited from earlier work
SW-620 = test system: SW-620; design: method as in PMID 25405285; settings: standard drugs used by NCI as control; cited from earlier work
SF-268 = test system: SF-268; design: method as in PMID 25405285; settings: standard drugs used by NCI as control; cited from earlier work
SF-539 = test system: SF-539; design: method as in PMID 25405285; settings: standard drugs used by NCI as control; cited from earlier work
SNB-19 = test system: SNB-19; design: method as in PMID 25405285; settings: standard drugs used by NCI as control; cited from earlier work
SNB-75 = test system: SNB-75; design: method as in PMID 25405285; settings: standard drugs used by NCI as control; cited from earlier work
U251 = test system: U251; design: method as in PMID 25405285; settings: standard drugs used by NCI as control; cited from earlier work
LOX IMVI = test system: LOX IMVI; design: method as in PMID 25405285; settings: standard drugs used by NCI as control; cited from earlier work
MALME-3M = test system: MALME-3M; design: method as in PMID 25405285; settings: standard drugs used by NCI as control; cited from earlier work
M14 = test system: M14; design: method as in PMID 25405285; settings: standard drugs used by NCI as control; cited from earlier work
MDA-MB-435 = test system: MDA-MB-435; design: method as in PMID 25405285; settings: standard drugs used by NCI as control; cited from earlier work
SK-MEL-2 = test system: SK-MEL-2; design: method as in PMID 25405285; settings: standard drugs used by NCI as control; cited from earlier work
SK-MEL-28 = test system: SK-MEL-28; design: method as in PMID 25405285; settings: standard drugs used by NCI as control; cited from earlier work
SK-MEL-5 = test system: SK-MEL-5; design: method as in PMID 25405285; settings: standard drugs used by NCI as control; cited from earlier work
UACC-257 = test system: UACC-257; design: method as in PMID 25405285; settings: standard drugs used by NCI as control; cited from earlier work
UACC-62 = test system: UACC-62; design: method as in PMID 25405285; settings: standard drugs used by NCI as control; cited from earlier work
IGROV1 = test system: IGROV1; design: method as in PMID 25405285; settings: standard drugs used by NCI as control; cited from earlier work
OVCAR-3 = test system: OVCAR-3; design: method as in PMID 25405285; settings: standard drugs used by NCI as control; cited from earlier work
OVCAR-4 = test system: OVCAR-4; design: method as in PMID 25405285; settings: standard drugs used by NCI as control; cited from earlier work
OVCAR-5 = test system: OVCAR-5; design: method as in PMID 25405285; settings: standard drugs used by NCI as control; cited from earlier work
OVCAR-8 = test system: OVCAR-8; design: method as in PMID 25405285; settings: standard drugs used by NCI as control; cited from earlier work
NCI/ADR-RES = test system: NCI/ADR-RES; design: method as in PMID 25405285; settings: standard drugs used by NCI as control; cited from earlier work
SK-OV-3 = test system: SK-OV-3; design: method as in PMID 25405285; settings: standard drugs used by NCI as control; cited from earlier work
786-0 = test system: 786-0; design: method as in PMID 25405285; settings: standard drugs used by NCI as control; cited from earlier work
A498 = test system: A498; design: method as in PMID 25405285; settings: standard drugs used by NCI as control; cited from earlier work
ACHN = test system: ACHN; design: method as in PMID 25405285; settings: standard drugs used by NCI as control; cited from earlier work
CAKI-1 = test system: CAKI-1; design: method as in PMID 25405285; settings: standard drugs used by NCI as control; cited from earlier work
RXF 393 = test system: RXF 393; design: method as in PMID 25405285; settings: standard drugs used by NCI as control; cited from earlier work
SN12C = test system: SN12C; design: method as in PMID 25405285; settings: standard drugs used by NCI as control; cited from earlier work
TK-10 = test system: TK-10; design: method as in PMID 25405285; settings: standard drugs used by NCI as control; cited from earlier work
UO-31 = test system: UO-31; design: method as in PMID 25405285; settings: standard drugs used by NCI as control; cited from earlier work
PC-3 = test system: PC-3; design: method as in PMID 25405285; settings: standard drugs used by NCI as control; cited from earlier work
DU-145 = test system: DU-145; design: method as in PMID 25405285; settings: standard drugs used by NCI as control; cited from earlier work
MCF7 = test system: MCF7; design: method as in PMID 25405285; settings: standard drugs used by NCI as control; cited from earlier work
MDA-MB-231/ATCC = test system: MDA-MB-231/ATCC; design: method as in PMID 25405285; settings: MDA-MB-31/ATCC; standard drugs used by NCI as control; cited from earlier work
HS 578T = test system: HS 578T; design: method as in PMID 25405285; settings: standard drugs used by NCI as control; cited from earlier work
BT-549 = test system: BT-549; design: method as in PMID 25405285; settings: standard drugs used by NCI as control; cited from earlier work
T-47D = test system: T-47D; design: method as in PMID 25405285; settings: standard drugs used by NCI as control; cited from earlier work
HL-60(TB) = settings: standard drugs used by NCI as control; cited from earlier work

Q: Which GI50 (CCRF-CEM) does the source give for `O=c1[nH]cc(F)c(=O)[nH]1` [Compound 5-FU, 5-fluorouracil] here?
A: The GI50 was 9970 nM.

Q: What about the GI50 (K-562) of the same compound?
A: Its GI50 is 3580 nM.

Q: And the GI50 (MOLT-4)?
A: Its GI50 is 350 nM.

Q: What about the GI50 (RPMI-8226) of the same compound?
A: Its GI50 is 40 nM.

Q: And the GI50 (A549/ATCC)?
A: Its GI50 is 180 nM.

Q: And the GI50 (HOP-62)?
A: Its GI50 is 390 nM.

Q: What about the GI50 (HOP-92) of the same compound?
A: Its GI50 is 77900 nM.

Q: And the GI50 (NCI-H226)?
A: The GI50 was 54700 nM.

Q: And the GI50 (NCI-H23)?
A: The GI50 was 330 nM.

Q: What about the GI50 (NCI-H460) of the same compound?
A: The GI50 was 50 nM.

Q: What about the GI50 (NCI-H522) of the same compound?
A: The GI50 was 7270 nM.

Q: What about the GI50 (COLO 205) of the same compound?
A: Its GI50 is 150 nM.

Q: And the GI50 (HCC-2998)?
A: Its GI50 is 50 nM.

Q: And the GI50 (HCT-116)?
A: Its GI50 is 220 nM.

Q: And the GI50 (HCT-15)?
A: The GI50 was 110 nM.

Q: What about the GI50 (HT29) of the same compound?
A: The GI50 was 170 nM.

Q: And the GI50 (KM12)?
A: Its GI50 is 210 nM.

Q: What about the GI50 (SW-620) of the same compound?
A: The GI50 was 920 nM.

Q: What about the GI50 (SF-268) of the same compound?
A: Its GI50 is 1620 nM.

Q: And the GI50 (SF-539)?
A: Its GI50 is 60 nM.

Q: What about the GI50 (SNB-19) of the same compound?
A: Its GI50 is 3810 nM.

Q: And the GI50 (SNB-75)?
A: The GI50 was 78700 nM.

Q: What about the GI50 (U251) of the same compound?
A: Its GI50 is 920 nM.

Q: What about the GI50 (LOX IMVI) of the same compound?
A: Its GI50 is 240 nM.

Q: And the GI50 (MALME-3M)?
A: The GI50 was 50 nM.

Q: And the GI50 (M14)?
A: The GI50 was 980 nM.

Q: What about the GI50 (MDA-MB-435) of the same compound?
A: The GI50 was 70 nM.

Q: What about the GI50 (SK-MEL-2) of the same compound?
A: The GI50 was 56700 nM.

Q: What about the GI50 (SK-MEL-28) of the same compound?
A: Its GI50 is 1030 nM.

Q: What about the GI50 (SK-MEL-5) of the same compound?
A: Its GI50 is 460 nM.

Q: What about the GI50 (UACC-257) of the same compound?
A: Its GI50 is 3550 nM.

Q: And the GI50 (UACC-62)?
A: The GI50 was 520 nM.

Q: And the GI50 (IGROV1)?
A: Its GI50 is 1220 nM.

Q: And the GI50 (OVCAR-3)?
A: The GI50 was 10 nM.

Q: What about the GI50 (OVCAR-4) of the same compound?
A: Its GI50 is 4430 nM.

Q: And the GI50 (OVCAR-5)?
A: Its GI50 is 10900 nM.

Q: What about the GI50 (OVCAR-8) of the same compound?
A: The GI50 was 1740 nM.

Q: And the GI50 (NCI/ADR-RES)?
A: Its GI50 is 310 nM.

Q: And the GI50 (SK-OV-3)?
A: The GI50 was 21800 nM.

Q: What about the GI50 (786-0) of the same compound?
A: Its GI50 is 720 nM.

Q: And the GI50 (A498)?
A: The GI50 was 350 nM.

Q: And the GI50 (ACHN)?
A: The GI50 was 270 nM.

Q: And the GI50 (CAKI-1)?
A: Its GI50 is 70 nM.

Q: And the GI50 (RXF 393)?
A: Its GI50 is 2610 nM.

Q: What about the GI50 (SN12C) of the same compound?
A: Its GI50 is 490 nM.

Q: And the GI50 (TK-10)?
A: The GI50 was 1120 nM.

Q: And the GI50 (UO-31)?
A: The GI50 was 1420 nM.

Q: What about the GI50 (PC-3) of the same compound?
A: Its GI50 is 2360 nM.

Q: What about the GI50 (DU-145) of the same compound?
A: Its GI50 is 360 nM.

Q: And the GI50 (MCF7)?
A: The GI50 was 70 nM.

Q: What about the GI50 (MDA-MB-231/ATCC) of the same compound?
A: Its GI50 is 6600 nM.

Q: What about the GI50 (HS 578T) of the same compound?
A: Its GI50 is 9770 nM.

Q: And the GI50 (BT-549)?
A: Its GI50 is 10600 nM.

Q: What about the GI50 (T-47D) of the same compound?
A: Its GI50 is 8120 nM.

Q: And the GI50 (HL-60(TB))?
A: Its GI50 is 2300 nM.
